Assay results from patent publication US9133219B2, “Bicyclic antibiotics” (Basilea Pharmaceutica AG, priority 2009, dated 2015).
Converted amounts (≈) assume the structure as drawn.

Tests used:
Format in all cases: cell-based
Escherichia coli = experiment: Anti-microbial activity assay, MIC by broth microdilution; conditions: Escherichia coli; strain UB1005; read-out: MIC Escherichia coli UB1005
How it was run: (§1)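 MIC read by eye on illuminated mirror reader after 20 to 24 h at 35° C, ambient air. Method: CLSI broth microdilution, CAMHB medium; S. pneumoniae tested in CAMHB + 5% v/v horse serum.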

Staphylococcus aureus = experiment: as above; conditions: Staphylococcus aureus; strain ATCC29213; read-out: MIC Staphylococcus aureus ATCC29213
How it was run: as §1

[1] = system: Staphylococcus epidermidis; experiment: as above; conditions: Staphylococcus epidermidis; strain ATCC14990
How it was run: as §1

[2] = system: Staphylococcus aureus and/or Staphylococcus epidermidis and/or Streptococcus pneumoniae; experiment: MIC summary statement, staphylococci and pneumococci; conditions: generally, for Staphylococcus aureus and/or Staphylococcus epidermidis and/or Streptococcus pneumoniae
Experimental: (§2) Anti-Microbial Activity Assay.
(§3) The antibacterial activity of compounds is determined by the minimal inhibitory concentration (MIC) method. MICs for all bacteria except pneumococci and Haemophilus influenzae are obtained by broth microdilution with cation-adjusted Mueller-Hinton broth (CAMHB; BBL), according to CLSI guidelines (National Committee for Clinical Laboratory Standards. 2003. Methods for dilution antimicrobial susceptibility tests for bacteria that grow aerobically, 5th ed.; approved standard M7-A6. National Committee for Clinical Laboratory Standards, Wayne, Pa.), with the following modifications: (i) for pneumococci CAMHB is supplemented with 5% (^v/v) horse serum; (ii) for Haemophilus influenzae CAMHB is supplemented with 5% (^v/v) Fildes enrichment (BBL) (Pankuch, G. A., Hoellman, D. B., Lin, G., Bajaksouzian, S., Jacobs, M. R., and Appelbaum, P. C. 1998. Activity of HMR 3647 compared to those of five agents against Haemophilus influenzae and Moraxella catarrhalis by MIC determination and time-kill assay. Antimicrob. Agents Chemother. 42:3032-3034). Microtiter plates are incubated at 35° C. in ambient air for 20 to 24 h, then inspected using an illuminated microtiter plate reader fitted with a magnifying mirror (MIC 2000; Cooke Laboratory Products, Alexandria, Va.). Compounds of the present invention are tested against several bacteria strains comprising some Acinetobacter baumannii, Enterococcus faecalis, Enterococcus faecitan, Escherichia coli, Haemophilus influenzae, Klebsiella pneumoniae, Pseudomonas aeruginosa, Staphylococcus aureus, Staphylococcus epidermidis and Streptococcus pneumoniae.

[3] = system: Staphylococcus aureus and/or Staphylococcus epidermidis and/or Streptococcus pneumoniae and/or Escherichia coli; experiment: MIC summary statement, staphylococci, pneumococci and E. coli; conditions: generally, for S. aureus and/or S. epidermidis and/or S. pneumoniae and/or E. coli; in most case of less than 2 mg/L
Experimental: as §2, §3

Streptococcus pneumoniae = experiment: Anti-microbial activity assay, MIC by broth microdilution (CAMHB with 5% horse serum); conditions: Streptococcus pneumoniae; strain ATCC49619; CAMHB with 5% horse serum; read-out: MIC Streptococcus pneumoniae ATCC49619
How it was run: as §1

[4] = system: Staphylococcus aureus and/or Staphylococcus epidermidis; experiment: MIC summary statement, staphylococci; conditions: generally, for Staphylococcus aureus and/or Staphylococcus epidermidis
How it was run: as §1

Structure (SMILES): COc1ccc2ncc(SCCN3CCC(NC(=O)c4ccc5c(c4)NC(=O)CS5)CC3)cc2c1 [Example 53, 3-oxo-3,4-dihydro-2H-benzo[1,4]thiazine-6-carboxylic acid {1-[2-(6-methoxy-quinolin-3-ylsulfanyl)-ethyl]-piperidin-4-yl}-amide]
- MIC (Escherichia coli): 4 µg/mL (≈ 7.86 µM)
- MIC (Staphylococcus aureus): ≤ 2 µg/mL
- MIC [1]: ≤ 2 µg/mL
- MIC [2]: ≤ 2 µg/mL
- MIC [3]: ≤ 4 µg/mL
- MIC (Streptococcus pneumoniae): ≤ 2 µg/mL
- MIC [4]: ≤ 2 µg/mL
